Experimental data: the supplement of paper PMC11061612

Key:
[1] = system: HPAF-II (Pancreatic Carcinoma); assay: Bliss excess, mean over the matrix (fraction); higher = more synergy
In short: (§1)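 Cell lines grown in DMEM/F12 or RPMI with 10% FBS were plated in 1536-well plates and held 24 hours at 37°C, 5% CO2 before 72 hours of exposure to two-drug dose matrices, with DMSO typically at 0.2%. CellTiter-Glo 2.0 luminescence gave viability, which was converted to inhibition. Vehicle wells were set to 0 and blank wells to 1. Combination Emax is the second-highest inhibition in the matrix, and Bliss excess is the observed combination effect minus the expected EA + EB − EA·EB, where EA and EB are the single-agent effects.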

[2] = system: SiHa (Cervical Carcinoma); assay: combination Emax (second highest fraction inhibited in the dose matrix, 72 h); higher = more inhibition; extreme values may be limits of the assay
In short: as §1

[3] = system: LS-1034 (Colorectal Carcinoma); assay: as above
In short: as §1

[4] = system: SKG-IIIa (Cervical Carcinoma); assay: as above
In short: as §1

[5] = system: TUR (Acute Myeloid Leukemia); assay: as above
In short: as §1

[6] = system: HPAF-II (Pancreatic Carcinoma); assay: as above
In short: as §1

[7] = system: MM1S (Plasma Cell Myeloma); assay: as above
In short: as §1

NCI-H226 (Mesothelioma) = assay: as above
In short: as §1

[8] = system: BHT-101 (Thyroid Gland Carcinoma); assay: as above
In short: as §1

[9] = system: ZR-75-30 (Breast Carcinoma); assay: as above
In short: as §1

[10] = system: SNU-423 (Hepatocellular Carcinoma); assay: as above
In short: as §1

[11] = system: NCI-H3118 (Head and Neck Carcinoma); assay: as above
In short: as §1

[12] = system: NCI-H1341 (Small Cell Lung Carcinoma); assay: as above
In short: as §1

[13] = system: SAT (Head and Neck Carcinoma); assay: as above
In short: as §1

[14] = system: NCI-H596 (Other Solid Carcinomas); assay: as above
In short: as §1

[15] = system: HT-1080 (Other Solid Carcinomas); assay: as above
In short: as §1
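Throughout, for Bliss excess, mean over the matrix: after 72 h of two-drug dosing.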

| SMILES | Bliss excess [1] | combination Emax [2] | combination Emax [3] | combination Emax [4] | combination Emax [5] | combination Emax [6] | combination Emax [7] | combination Emax (NCI-H226 (Mesothelioma)) | combination Emax [8] | combination Emax [9] | combination Emax [10] | combination Emax [11] | combination Emax [12] | combination Emax [13] | combination Emax [14] | combination Emax [15] |
| --- | --- | --- | --- | --- | --- | --- | --- | --- | --- | --- | --- | --- | --- | --- | --- | --- |
| CC(=O)c1c(C)c2cnc(Nc3ccc(N4CCNCC4)cn3)nc2n(C2CCCC2)c1=O [Palbociclib] + CC1(C)CCC(CN2CCN(c3ccc(C(=O)NS(=O)(=O)c4ccc(NCC5CCOCC5)c([N+](=O)[O-])c4)c(Oc4cnc5[nH]ccc5c4)c3)CC2)=C(c2ccc(Cl)cc2)C1 [Venetoclax] (first compound max 10 µM, 7x7, partner max 1 µM) | -0.034 | 0.123 | 0.559 | 0.0106 | 0.348 | 0.0506 | 0.308 | 0.176 | 0.431 | 0.101 | 0.179 | 0.318 | 0.259 | 0.353 | 0.134 | 0.143 |
| COc1nnc2ccc(N3CCC(c4ccc(OCCN5CCN(C)C(=O)[C@H]5C)cc4)CC3)nn12 [AZD5153] + C[C@@H]1COCCN1C2=NC(=NC(=C2)C3(CC3)[S@](=N)(=O)C)C4=C5C=CNC5=NC=C4 [AZD6738] (first compound max 1 µM, 7x7, partner max 10 µM) | 0.0002 | 0.639 | 0.758 | 0.537 | 0.984 | 0.512 | 0.778 | 0.37 | 0.816 | 0.34 | 0.517 | 0.61 | 0.955 | 0.804 | 0.79 | 0.579 |
| Cn1cnc2c(F)c(Nc3ccc(Br)cc3Cl)c(C(=O)NOCCO)cc21 [Selumetinib] + C=CCn1c(=O)c2cnc(Nc3ccc(N4CCN(C)CC4)cc3)nc2n1-c1cccc(C(C)(C)O)n1 [AZD1775] (first compound max 10 µM, partner max 1 µM) | 0.039 | 0.22 | 0.747 | 0.303 | 0.764 | 0.728 | 0.746 | 0.145 | 0.828 | 0.134 | 0.396 | 0.902 | 0.697 | 0.637 | 0.223 | 0.439 |
| NC1(C(=O)N[C@@H](CCO)c2ccc(Cl)cc2)CCN(c2ncnc3[nH]ccc23)CC1 [Capivasertib] + CC(C)n1c(=O)n(C)c2cnc3cc(F)c(-c4ccc(OCCCN5CCCCC5)nc4)cc3c21 [AZD1390] (first compound max 10 µM, 7x7, partner max 0.3 µM) | -0.0016 | 0.241 | 0.322 | 0.244 | 0.809 | 0.245 | 0.999 | 0.335 | 0.341 | 0.419 | 0.503 | 0.247 | 0.532 | 0.555 | 0.542 | 0.194 |
| COc1nnc2ccc(N3CCC(c4ccc(OCCN5CCN(C)C(=O)[C@H]5C)cc4)CC3)nn12 [AZD5153] + CCN(CCO)CCCOc1ccc2c(Nc3cc(CC(=O)Nc4cccc(F)c4)[nH]n3)ncnc2c1 [AZD2811] (first compound max 1 µM, 7x7, partner max 1 µM) | 0.0072 | 0.571 | 0.535 | 0.495 | 0.827 | 0.379 | 0.635 | 0.443 | 0.7 | 0.313 | 0.507 | 0.55 | 0.659 | 0.775 | 0.744 | 0.387 |
| NC1(C(=O)N[C@@H](CCO)c2ccc(Cl)cc2)CCN(c2ncnc3[nH]ccc23)CC1 [Capivasertib] + Cn1cnc2c(F)c(Nc3ccc(Br)cc3Cl)c(C(=O)NOCCO)cc21 [Selumetinib] (first compound max 10 µM, 7x7, partner max 10 µM) | 0.0623 | 0.233 | 0.657 | 0.435 | 0.924 | 0.75 | 1 | 0.316 | 0.902 | 0.501 | 0.491 | 0.657 | 0.728 | 0.677 | 0.575 | 0.466 |
| Cn1cnc2c(F)c(Nc3ccc(Br)cc3Cl)c(C(=O)NOCCO)cc21 [Selumetinib] + C[C@@H]1COCCN1C2=NC(=NC(=C2)C3(CC3)[S@](=N)(=O)C)C4=C5C=CNC5=NC=C4 [AZD6738] (first compound max 10 µM, 7x7, partner max 10 µM) | 0.0119 | 0.209 | 0.811 | 0.214 | 0.934 | 0.768 | 0.475 | 0.152 | 0.883 | 0.111 | 0.285 | 0.653 | 0.809 | 0.561 | 0.36 | 0.461 |
